Experimental data reported in US6930114B2, “Pyrrolo (2.1a)dihydroisoquinolines and their use as phosphodiesterase 10a inhibitors” (Bayer Pharmaceuticals Corporation, priority 2000, dated 2005).
Like-named read-outs stand apart in the source and are kept apart here.

Experiments:
[1] = system: MDA-MB-231 human breast carcinoma cells; experiment: In vitro proliferation inhibition assay (LDH activity, 72 hours); assay type: cell-based; details: MDA-MB-231 cells, read-out: % inhibition at a concentration of 10 μM
Experimental: MDA-MB-231 human breast carcinoma cells (ATCC # HTB26) were cultured in standard growth medium (DMEM), supplemented with 10% heat-inactivated FBS, 10 mM HEPES, 2 mM glutamine, 100 U/mL penicillin, and 100 μg/mL streptomycin) at 37° C. in 5% CO2 (vol/vol) in a humidified incubator. Cells were plated at a density of 3000 cells per well in 100 μL growth medium in a 96 well culture dish. 24 hours after plating, LDH activity was determined using the Cytotox 96 Non-radioactive Cytotoxicity Kit (Promega, Madison, Wis., U.S.A.) to yield T0h LDH values. Briefly, cells were lysed with the addition of 200 μL of Lysis Buffer (included in the Promega Kit) and lysates were further diluted 1:50 in Lysis Buffer. 50 μL of diluted cell lysate were transferred to a fresh 96 well culture plate. The assay was initiated with the addition of 50 μL of substrate per well. Color development was allowed to proceed for 10-15 minutes. The assay was terminated with the addition of 50 μL of Stop Solution (included in Promega kit). Optical densities were determined spectrophotometrically at 490 nm in a 96 well plate reader (SpectraMax 250, Molecular Devices, Sunnyvale, Calif., U.S.A.).
Test compounds were dissolved in 100% DMSO to prepare 10 mM stocks. Stocks were further diluted 1:250 in growth medium to yield working stocks of 40 μM test compound in 0.4% DMSO. Test compounds were serially diluted in growth medium containing 0.4% DMSO to maintain constant DMSO concentrations for all wells. 50 μL of fresh growth medium and 50 μL of diluted test compound were added to each culture well to give a final volume of 200 μL. The cells with and without individual test compounds were incubated for 72 hours at which time LDH activity was measured to yield T72h values. Optionally, the IC50 values can be determined with a least squares analysis program using compound concentration versus percent inhibition. % Inhibition=[1−(T72h test−T0h)/(T72h ctrl−T0h)]×100 wherein • T72h test=LDH activity at 72 hours in the presence of test compound, • T72h ctrl=LDH activity at 72 hours in the absence of test compound and • T0h=LDH activity at Time Zero

PDE 10a = target: T1, PDE 10a (Homo sapiens, UniProt Q9Y233); experiment: In vitro enzyme inhibition assay (3H-cAMP scintillation proximity assay); assay type: biochemical; details: full-length recombinant PDE 10a, Sf9 cell lysate
T1 construct: Full-length recombinant PDE 10a was expressed in Sf9 insect cells; made in house; host or cells: Sf9 insect cells (Bac-to-Bac baculovirus system); crude lysate supernatant used
T1 sequence (Q9Y233 1-779 isoform Q9Y233-1): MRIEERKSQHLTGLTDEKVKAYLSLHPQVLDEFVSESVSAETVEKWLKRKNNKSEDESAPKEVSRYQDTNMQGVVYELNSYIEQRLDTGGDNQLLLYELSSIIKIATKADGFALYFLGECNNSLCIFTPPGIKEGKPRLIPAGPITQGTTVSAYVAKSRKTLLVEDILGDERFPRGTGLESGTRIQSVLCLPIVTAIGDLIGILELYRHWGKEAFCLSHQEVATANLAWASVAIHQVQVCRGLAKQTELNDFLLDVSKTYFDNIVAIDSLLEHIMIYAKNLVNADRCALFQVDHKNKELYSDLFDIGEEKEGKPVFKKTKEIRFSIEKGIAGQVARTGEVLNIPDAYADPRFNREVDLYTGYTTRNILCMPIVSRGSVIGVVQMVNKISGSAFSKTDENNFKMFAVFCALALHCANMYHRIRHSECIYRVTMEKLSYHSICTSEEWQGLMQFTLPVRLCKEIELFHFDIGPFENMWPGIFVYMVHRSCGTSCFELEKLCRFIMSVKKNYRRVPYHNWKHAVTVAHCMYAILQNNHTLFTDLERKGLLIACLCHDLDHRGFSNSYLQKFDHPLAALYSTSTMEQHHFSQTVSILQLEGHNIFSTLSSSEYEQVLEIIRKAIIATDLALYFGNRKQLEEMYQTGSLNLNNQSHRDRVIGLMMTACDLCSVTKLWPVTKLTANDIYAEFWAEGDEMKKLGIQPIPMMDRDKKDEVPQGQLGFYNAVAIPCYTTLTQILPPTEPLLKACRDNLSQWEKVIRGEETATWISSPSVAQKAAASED
Experimental: Full-length recombinant PDE 10a was expressed in Sf9 insect cells (Invitrogen, Carlsbad, Calif., U.S.A.) using the Bac-to-Bac™ Baculovirus Expression System (Life Technologies, Gaithersburg, Md., U.S.A.). 48 hours post infection, cells were harvested and resuspended in 20 mL (per 1 L culture) Lysis Buffer (50 mM Tris-HCl, pH 7.4, 50 mM NaCl, 1 mM MgCl2, 1.5 mM EDTA, 10% glycerol plus 20 μL Protease Inhibitor Cocktail Set III [CalBiochem, La Jolla, Calif., U.S.A.]). Cells were sonicated at 4° C. for 1 minute and centrifuged at 10,000 RPM for 30 minutes at 4° C. Supernatant was removed and stored at −20° C. for activity assays.
The test compounds were serially diluted in DMSO using two-fold dilutions to stock concentrations ranging typically from 200 μM to 1.6 μM (final concentrations in the assay range from 4 μM to 0.032 μM). 96-well assay isoplates (Wallac Inc., Atlanta, Ga., U.S.A.) were loaded with 50 μL dilution buffer per well (dilution buffer: 50 mM Tris/HCl pH 7.5, 8.3 mM MgCl2, 1.7 mM EDTA, 0.2% BSA). 2 μL of the serially diluted individual test compounds were added to individual wells,m followed by 25 μL of a 1:25,000 dilution of crude recombinant PDE 10a-containing Sf9 cell lysate (diluted in dilution buffer described above). The enzymatic assay was initiated by addition of 25 μL (0.025 μCi) ^3H cyclic AMP tracer [5′,8-^3H] adenosine 3′,5′-cyclic phosphate (Amersham Pharmacia Biotech., Piscataway, N.J., U.S.A.) that was diluted 1:1000 in assay buffer (assay buffer: 50 mM Tris/HCl pH 7.5, 8.3 mM MgCl2, 1.7 mM EDTA). Reactions were incubated at room temperature for 60 minutes and terminated by addition of 25 μL of 18 mg/mL Yttrium Scintillation Proximity Beads (Amersham Pharmacia Biotech., Piscataway, N.J., U.S.A.). Plates were sealed and incubated at room temperature for 60 minutes. Plates were read for 30 seconds/well using a Microbeta counter (Wallac Inc., Atlanta, Ga., U.S.A.). The IC50 values were determined by plotting compound concentration versus percent inhibition.

IC50 (PDE 10a; Examples of part a (Table 1a)) [nM]	IC50 (PDE 10a; Examples of part b (Table 1b)) [nM]	SMILES	inhibition at 10 µM ([1]; Examples of part a (Table 2a)) [%]	inhibition at 10 µM ([1]; Examples of part b (Table 2b)) [%]
42		CCOC(=O)c1c(-c2cccc(N(C)C)c2)c(C)n2c1-c1cc(OC)c(OC)cc1CC2 [(part a) 10]	93	
110		CCOC(=O)c1c(-c2cccc(N)c2)c(C)n2c1-c1cc(OC)c(OC)cc1CC2 [(part a) 28]	93	
	110	CCOC(=O)c1c(-c2cc(O)cc(O)c2)c(C)n2c1-c1cc(OC)c(OC)cc1CC2 [(part b) 1]		89
30		CCOC(=O)c1c(-c2cc(C)c(O)c(C)c2)c(C)n2c1-c1cc(OC)c(OC)cc1CC2 [(part a) 1]	93	
